This is an account of results in patent US5446037A, “2-[(substituted) methylene]cephalosporin sulfones as antiinflammatory, antidegenerative and antithrombin agents” (Synphar Laboratories, Inc., priority 1993, dated 1995).

In assay [1] the target is T1, human leukocyte elastase (HLE) (Homo sapiens, UniProt P08246).
T1 construct: purchased Elastin products, Missouri, U.S.A
T1 sequence (P08246 30-267): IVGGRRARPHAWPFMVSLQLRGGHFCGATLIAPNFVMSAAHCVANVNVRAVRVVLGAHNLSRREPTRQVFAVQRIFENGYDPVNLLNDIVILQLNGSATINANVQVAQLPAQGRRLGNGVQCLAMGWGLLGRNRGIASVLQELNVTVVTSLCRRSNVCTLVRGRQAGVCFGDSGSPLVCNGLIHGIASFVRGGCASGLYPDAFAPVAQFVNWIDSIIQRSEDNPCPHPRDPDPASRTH
As to the kind of experiment: Human leukocyte elastase (HLE) inhibition (MeO-Suc-Ala-Ala-Pro-Val-pNA hydrolysis, absorbance at 410 nm). The class given is biochemical. As to conditions: Table I; pH 7.6, 30° C., 10 min pre-incubation, 10% (v/v) DMSO. The protocol:
Determining HLE Inhibitory Activity
Human leukocyte elastase (HLE) obtained from Elastin products, Missouri, U.S.A., is dissolved in 0.05M sodium acetate containing 0.4M sodium chloride (pH 5.3) and stored at -20° C. Small aliquots of these stock solutions (1 μm) are used in the HLE assays.
Buffer: 0.01M Na, K-Phosphate, 0.5M NaCl (pH 7.6)
Substrate: 0,014M Meo-Suc-Ala-Ala-Pro-Val-pNA in DMSO
Inhibitor: various concentrations in DMSO
Enzyme: stock solution noted above
The stock solution of enzyme was equilibrated to 30° C. A cuvette containing buffer and inhibitor was equilibrated to 30° C. 10 μL of enzyme solution giving a rate of 0.04-0.05 AU/min in the absence of inhibitor, was mixed into the buffer/inhibitor solution and this mixture was incubated at 30° C. for 10 minutes. After this pre-incubation substrate was added to give a final concentration of […] and a final DMSO concentration of 10% (v/v). The rate of product formation, proportional to the change in absorbance at 410 nm, was monitored for two minutes following the addition of substrate. For a typical IC50 plot the rate was determined at 5-8 inhibitor concentrations (in duplicate) spanning 10-80% inhibition (in most cases). In most cases the data could be fit by linear least-squares and the IC50 determined from this plot.

The next assay deals with T2, human plasma thrombin (Homo sapiens, UniProt P00734).
T2 construct: purchased Boehringer, Montreal, Canada
As to the kind of experiment: Inhibition of thrombin (Chromozym TH spectrophotometric end-point assay, 410 nm). The note with it: Table II, pH 8.6, room temperature, 10 min pre-incubation, 30 min incubation. The class given is biochemical. The protocol:
Determining the Inhibition of Thrombin
Lyophilized human plasma thrombin obtained from Boehringer, Montreal, Canada was dissolved in 0.5M Na, K-phosphate buffer (pH 7.0) and stored at +4° C.
Substrate: 0.5 mM Chromozym TH (tosyl-glycyl-prolylarginine-4-nitroanilide acetate) in DMSO
Inhibitor: 10 μM dissolved in DMSO
Temperature: room temperature (approx.).
A single inhibitor concentration (10 μM) was tested using a spectrophotometric end-point assay (1 ml final volume). Enzyme activity was monitored by formation of a product that absorbed light at 410 nm and an enzyme concentration which gave a rate of 0.01-0.02 AU/min was used. Enzyme and inhibitor were pre-incubated for 10 min in the final amounts of buffer and DMSO. The reaction was then started by the addition of substrate. After 30 min incubation the reaction was terminated by the addition of 10% SDS (0.1 ml) and the absorbance measured. Enzyme blanks were run concurrently to account for any background absorbance by the compound. Inhibition was calculated by the net A410 in the presence of inhibitor compared to that in the absence of inhibitor (DMSO controls).

Each structure is given as a SMILES string.

One may read the IC50 as the midpoint of a concentration-inhibition curve. Read a low IC50 as higher potency. For the molecule `CO[C@H]1C(=O)N2C(C(=O)OC(C)(C)C)=C(COC(C)=O)/C(=C\c3cccnc3)S(=O)(=O)[C@H]12`, half-maximal inhibition in assay [1] (IC50) required 7.2 nM.
Broadly, the inhibition is the percentage by which the read-out fell short of the control. A lower inhibition goes with a weak effect. On to `CO[C@H]1C(=O)N2C(C(=O)OC(C)(C)C)=C(COC(C)=O)/C(=C\c3ccccc3F)S(=O)(=O)[C@H]12` [drawing 37], for which, on human plasma thrombin, the inhibition at 10 µM was determined as 98.5%.
In assay [1], `CO[C@H]1C(=O)N2C(C(=O)OC(C)(C)C)=C(C)/C(=C/c3cccnc3)S(=O)(=O)[C@H]12` had an IC50 of 35 nM.
The same measure, in the same setting: for `CO[C@H]1C(=O)N2C(C(=O)OC(C)(C)C)=C(COC(C)=O)/C(=C\c3ccsc3)S(=O)(=O)[C@H]12` [drawing 29] the value was 6.4 nM; for `CO[C@H]1C(=O)N2C(C(=O)OC(C)(C)C)=C(COC(C)=O)/C(=C/c3cccnc3)S(=O)(=O)[C@H]12`, 7.2 nM; for `CO[C@H]1C(=O)N2C(C(=O)OC(C)(C)C)=C(COC(C)=O)/C(=C/c3ccccc3F)S(=O)(=O)[C@H]12` [drawing 21], 5.8 nM.
Regarding `CO[C@H]1C(=O)N2C(C(=O)OC(C)(C)C)=C(COC(C)=O)/C(=C\c3ccsc3)S(=O)(=O)[C@H]12` [drawing 35], the inhibition at 10 µM on human plasma thrombin worked out at 98.9%.
Same read-out and setting: for `CO[C@H]1C(=O)N2C(C(=O)OC(C)(C)C)=C(COC(C)=O)/C(=C/c3ccccc3F)S(=O)(=O)[C@H]12` [drawing 36] the value was 96.8%.
`CO[C@H]1C(=O)N2C(C(=O)OC(C)(C)C)=C(COC(C)=O)/C(=C\c3ccco3)S(=O)(=O)[C@H]12` [drawing 25] gave an IC50 in assay [1] of 22 nM.
Take `CO[C@H]1C(=O)N2C(C(=O)OC(C)(C)C)=C(COC(C)=O)/C(=C\c3cn(C)nn3)S(=O)(=O)[C@H]12`: in assay [1], the IC50 was found to be 9.2 nM.
In turn, `CO[C@H]1C(=O)N2C(C(=O)OC(C)(C)C)=C(COC(C)=O)/C(=C\c3ccco3)S(=O)(=O)[C@H]12` [drawing 34] displayed an inhibition at 10 µM against human plasma thrombin of 94.7%.
In turn, `CO[C@H]1C(=O)N2C(C(=O)OC(C)(C)C)=C(COC(C)=O)/C(=C/c3cn(C)nn3)S(=O)(=O)[C@H]12` returned an IC50 in assay [1] of 7.8 nM.
Same read-out and setting: for `CO[C@H]1C(=O)N2C(C(=O)OC(C)(C)C)=C(C)/C(=C/c3cn(C)nn3)S(=O)(=O)[C@H]12` the value was 75 nM; for `CO[C@H]1C(=O)N2C(C(=O)OC(C)(C)C)=C(COC(C)=O)/C(=C/c3ccsc3)S(=O)(=O)[C@H]12`, 6.4 nM.
Still for that read-out and setting: for `CO[C@H]1C(=O)N2C(C(=O)OC(C)(C)C)=C(COC(C)=O)/C(=C\c3ccccc3F)S(=O)(=O)[C@H]12` [drawing 22] the value was 6 nM; for `CO[C@H]1C(=O)N2C(C(=O)OC(C)(C)C)=C(C)/C(=C\c3cn(C)nn3)S(=O)(=O)[C@H]12`, 100 nM.
